Data taken from the CheMixHub viscosity set.

Test: xn = mol fraction of the nth substance listed

CC(C)O + CCCO
viscosity [mPa·s], 101 kPa
Settings	293.15 K	298.15 K	303.15 K	313.15 K	323.15 K
x2 = 0.1001	2.369	–	1.776	1.349	1.048
x2 = 0.172	–	2.066	–	–	–
x2 = 0.2006	2.359	–	1.777	1.36	1.066
x2 = 0.2956	2.344	–	1.773	1.365	1.077
x2 = 0.33	–	1.997	–	–	–
x2 = 0.3999	2.322	–	1.766	1.368	1.084
x2 = 0.4993	2.3	–	1.758	1.368	1.086
x2 = 0.5	–	2.02	–	–	–
x2 = 0.6	2.278	–	1.75	1.367	1.088
x2 = 0.665	–	1.985	–	–	–
x2 = 0.6973	2.258	–	1.744	1.368	1.089
x2 = 0.754	–	1.985	–	–	–
x2 = 0.7993	2.238	–	1.739	1.368	1.091
x2 = 0.826	–	1.972	–	–	–
x2 = 0.8994	2.219	–	1.734	1.369	1.096

CC1CCCCC1 + CCCO
303.15 K, 101.33 kPa
Settings	viscosity [mPa·s]
x1 = 0.0998	1.42
x1 = 0.2182	1.188
x1 = 0.4212	0.918
x1 = 0.576	0.777
x1 = 0.7398	0.677
x1 = 0.9	0.637

CCCNCCC + CCCO
viscosity [mPa·s], 101.33 kPa
Settings	x1 = 0.1059	x1 = 0.2109	x1 = 0.3116	x1 = 0.401	x1 = 0.513	x1 = 0.5913	x1 = 0.7036	x1 = 0.8073	x1 = 0.885
303.15 K	1.601	1.425	1.268	1.138	0.994	0.8936	0.7675	0.6649	0.5972
313.15 K	1.261	1.126	1.009	0.8968	0.7829	0.7121	0.6195	0.5442	0.4899

CCOC(=O)[C@@H](O)[C@H](O)C(=O)OCC + CCCO
viscosity [mPa·s], 101 kPa
Settings	x1 = 0.1	x1 = 0.2	x1 = 0.2999	x1 = 0.3999	x1 = 0.5001	x1 = 0.5999	x1 = 0.7	x1 = 0.7996	x1 = 0.9
293.15 K	3.256	5.15	8.204	13.19	21	32.75	52.88	84.67	135.1
298.15 K	2.832	4.359	6.759	10.53	16.09	24.37	37.73	57.79	88.2
303.15 K	2.467	3.7	5.586	8.415	12.64	18.48	27.67	40.91	60.18
308.15 K	2.164	3.17	4.671	6.886	10.06	14.35	20.86	29.93	42.64
313.15 K	1.913	2.731	3.92	5.661	8.093	11.3	16.05	22.45	31.15
318.15 K	1.694	2.385	3.38	4.782	6.694	9.164	12.71	17.37	23.52
323.15 K	1.52	2.108	2.94	4.092	5.623	7.561	10.28	13.77	18.27

CCOC(=O)c1ccccc1 + CCCO
viscosity [mPa·s], 101.3 kPa
Settings	x1 = 0.0548	x1 = 0.1155	x1 = 0.1829	x1 = 0.2582	x1 = 0.3431	x1 = 0.4393	x1 = 0.5493	x1 = 0.6763	x1 = 0.8246
303 K	1.619	1.637	1.645	1.657	–	1.688	1.703	1.72	1.734
308 K	1.471	1.486	1.499	1.51	1.525	1.537	1.552	1.568	1.579
313 K	1.326	1.337	1.351	1.364	1.372	1.386	1.403	1.414	1.432
318 K	1.235	1.247	1.257	1.272	1.28	1.291	1.302	1.314	1.327
323 K	1.175	1.188	1.194	1.205	1.21	1.219	1.227	1.235	1.244

O=C(O)c1cccc([N+](=O)[O-])c1 + CCCO
viscosity [mPa·s], 101 kPa
Settings	x1 = 0.219	x1 = 0.22	x1 = 0.244	x1 = 0.261	x1 = 0.2797	x1 = 0.2805
318.15 K	3.007	3.007	3.286	3.62	3.951	3.95
323.15 K	2.632	–	–	–	–	3.456

CCCNCCC + CCCOCCO
viscosity [mPa·s], 101.33 kPa
Settings	298.15 K	308.15 K	318.15 K
x2 = 0.0247	0.53	0.463	0.401
x2 = 0.075	0.592	0.511	0.435
x2 = 0.125	0.657	0.564	0.473
x2 = 0.1902	0.753	0.636	0.529
x2 = 0.2692	0.889	0.737	0.602
x2 = 0.3692	1.09	0.883	0.709
x2 = 0.4334	1.228	0.985	0.782
x2 = 0.476	1.329	1.058	0.833
x2 = 0.5289	1.463	1.153	0.903
x2 = 0.623	1.686	1.318	1.021
x2 = 0.723	1.94	1.507	1.157
x2 = 0.8063	2.136	1.656	1.269
x2 = 0.9114	2.293	1.78	1.362
x2 = 0.9598	2.322	1.846	1.413
x2 = 0.9731	2.333	1.863	1.428

CC(C)O + CCO
101 kPa
Settings	viscosity [mPa·s]
298.15 K, x2 = 0.214	1.796
298.15 K, x2 = 0.393	1.607
298.15 K, x2 = 0.565	1.445
298.15 K, x2 = 0.725	1.299
298.15 K, x2 = 0.869	1.182
308.15 K, x2 = 0.5	1.186
313.15 K, x2 = 0.5	1.066
318.15 K, x2 = 0.5	0.9542

CCCNCCC + CCO
viscosity [mPa·s], 101.33 kPa
Settings	x1 = 0.0942	x1 = 0.1946	x1 = 0.3116	x1 = 0.4115	x1 = 0.5186	x1 = 0.6176	x1 = 0.7061	x1 = 0.8005	x1 = 0.9058
303.15 K	1.05	1.048	0.9952	0.9229	0.8291	0.7485	0.6803	0.6208	0.56
313.15 K	0.8212	0.7926	0.7448	0.6985	0.6485	0.5986	0.5562	0.51	0.4624

CNS(C)(=O)=O + CCO
303.15 K, 101.33 kPa
Settings	viscosity [mPa·s]
x1 = 0.1006	1.105
x1 = 0.201	1.3
x1 = 0.2995	1.58
x1 = 0.3949	1.871
x1 = 0.4923	2.303
x1 = 0.5949	2.888
x1 = 0.6892	3.612
x1 = 0.7757	4.493
x1 = 0.8905	6.09

COc1ccc(/C=C/C(=O)c2ccccc2)cc1 + CCO
viscosity [mPa·s], 101 kPa
Settings	x1 = 0.000144	x1 = 0.000288	x1 = 0.0005755	x1 = 0.00115	x1 = 0.002298	x1 = 0.004586
298.15 K	1.12	1.173	1.263	1.34	1.364	1.439
303.15 K	1.019	1.072	1.162	1.239	1.263	1.338
308.15 K	0.9181	0.971	1.061	1.138	1.162	1.237

O=C(C=Cc1ccccc1)c1ccccc1 + CCO
viscosity [mPa·s], 101 kPa
Settings	x1 = 0.000144	x1 = 0.000288	x1 = 0.0005755	x1 = 0.00115	x1 = 0.002298	x1 = 0.004586
298.15 K	1.102	1.141	1.216	1.256	1.283	1.356
303.15 K	1.01	1.049	1.115	1.156	1.181	1.255
308.15 K	0.9181	0.9561	1.014	1.056	1.079	1.154

CCOC(=O)c1ccccc1 + CCOC(C)=O
298.15 K, 101 kPa
Settings	viscosity [mPa·s]
x2 = 0.1216	1.704
x2 = 0.2088	1.514
x2 = 0.3131	1.292
x2 = 0.3973	1.157
x2 = 0.5044	0.9851
x2 = 0.5998	0.8478
x2 = 0.6989	0.7247
x2 = 0.7997	0.6178
x2 = 0.8992	0.5188

CCn1cc[n+](C)c1.N#C[S-] + CCOS(=O)(=O)[O-].CC[n+]1ccn(C)c1
100 kPa
Settings	viscosity [mPa·s]
298.15 K, x2 = 0.0495	24.95
323.15 K, x2 = 0.571	25.65

Cc1ccccc1[N+](=O)[O-] + CN1CCC[C@H]1c1cccnc1
viscosity [mPa·s], 101.33 kPa
Settings	x2 = 0.1058	x2 = 0.2027	x2 = 0.2928	x2 = 0.4027	x2 = 0.4939	x2 = 0.5968	x2 = 0.6894	x2 = 0.7864	x2 = 0.8909
298.15 K	2.229	2.424	2.583	2.775	3.008	3.117	3.335	3.47	3.697
323.15 K	1.405	1.481	1.557	1.625	1.7	1.764	1.909	1.919	2.002

N#CCc1ccccc1 + CNC(C)=O
308.15 K, 101.33 kPa
Settings	viscosity [mPa·s]
x2 = 0.0446	1.599
x2 = 0.2775	1.791
x2 = 0.3928	1.896
x2 = 0.5001	2.049
x2 = 0.6015	2.252
x2 = 0.6941	2.456
x2 = 0.7795	2.662
x2 = 0.8542	2.87
x2 = 0.9375	3.109
